This passage reports EC50 results from patent publication US20250243171A1, “QUINAZOLINE COMPOUNDS FOR TREATMENT OF DISEASE” (Arthrosi Therapeutics, Inc., priority 2021, published 2025).

In general, EC50 refers to the midpoint of the concentration-response curve. A lower EC50 goes with higher potency in that assay.

Holding throughout (assay): EC50 assay: Ba/F3 stable cell proliferation (CCK-8, 72 h)
Holding throughout (assay type): cell-based

Experiment [1] concerns the target T1, Ba/F3 stable cells (Homo sapiens, UniProt P00533, INS763FQEA, cells depend on it).
T1 construct: EC50 Ba/F3-EGFR A763-Y764insFQEA; other: Ba/F3-EGFR A763-Y764insFQEA cells, 72 h, CCK-8
To be noted: Ba/F3-EGFR A763-Y764insFQEA cells. In outline: (§1)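 Ba/F3 stable cells were seeded at 4,000 cells/90 μL/well in 96-well plates and held 2 h at 37° C. in 5% CO2, then given 10 μL of serially titrated compound (0.1% DMSO final). After 72 h at 37° C., CCK-8 reagent was added for 4 hours and absorbance read at 450 nm to derive EC50.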

In experiment [2] the target is T2, Ba/F3 stable cells (Homo sapiens, UniProt P00533, DUP771-773, cells depend on it).
T2 construct: EC50 Ba/F3-EGFR H773-V774insNPH; other: Ba/F3-EGFR H773-V774insNPH cells, 72 h, CCK-8
Conditions: Ba/F3-EGFR H773-V774insNPH cells. In outline: as §1

The target of experiment [3] is T3, Ba/F3 stable cells (Homo sapiens, UniProt P00533, DUP768-770, cells depend on it).
T3 construct: EC50 Ba/F3-EGFR D770-N771insSVD; other: Ba/F3-EGFR D770-N771insSVD cells, 72 h, CCK-8
Conditions: Ba/F3-EGFR D770-N771insSVD cells. In outline: as §1

Experiment [4] concerns the target T4, Ba/F3 stable cells (Homo sapiens, UniProt P04626, DUP772-775, cells depend on it).
T4 construct: EC50 Ba/F3-HER2 A775-G776insYVMA; other: Ba/F3-HER2 A775-G776insYVMA cells, 72 h, CCK-8
Conditions: Ba/F3-HER2 A775-G776insYVMA cells. In outline: as §1

Experiment [5] addresses T5, Ba/F3 stable cells (Homo sapiens, UniProt P00533, T790M/L858R, cells depend on it).
T5 construct: EC50 Ba/F3-EGFR L858R-T790M; other: Ba/F3-EGFR L858R-T790M cells, 72 h, CCK-8
Conditions: Ba/F3-EGFR L858R-T790M cells. In outline: as §1

Experiment [6] concerns the target T6, Ba/F3 stable cells (Homo sapiens, UniProt P00533, DUP767-769, cells depend on it).
T6 construct: EC50 Ba/F3-EGFR V769-D770insASV; other: Ba/F3-EGFR V769-D770insASV cells, 72 h, CCK-8
To be noted: Ba/F3-EGFR V769-D770insASV cells. In outline: as §1

Some results are limits rather than exact numbers.

T2 sequence (P00533 with tags, fused parts or gaps DUP771-773): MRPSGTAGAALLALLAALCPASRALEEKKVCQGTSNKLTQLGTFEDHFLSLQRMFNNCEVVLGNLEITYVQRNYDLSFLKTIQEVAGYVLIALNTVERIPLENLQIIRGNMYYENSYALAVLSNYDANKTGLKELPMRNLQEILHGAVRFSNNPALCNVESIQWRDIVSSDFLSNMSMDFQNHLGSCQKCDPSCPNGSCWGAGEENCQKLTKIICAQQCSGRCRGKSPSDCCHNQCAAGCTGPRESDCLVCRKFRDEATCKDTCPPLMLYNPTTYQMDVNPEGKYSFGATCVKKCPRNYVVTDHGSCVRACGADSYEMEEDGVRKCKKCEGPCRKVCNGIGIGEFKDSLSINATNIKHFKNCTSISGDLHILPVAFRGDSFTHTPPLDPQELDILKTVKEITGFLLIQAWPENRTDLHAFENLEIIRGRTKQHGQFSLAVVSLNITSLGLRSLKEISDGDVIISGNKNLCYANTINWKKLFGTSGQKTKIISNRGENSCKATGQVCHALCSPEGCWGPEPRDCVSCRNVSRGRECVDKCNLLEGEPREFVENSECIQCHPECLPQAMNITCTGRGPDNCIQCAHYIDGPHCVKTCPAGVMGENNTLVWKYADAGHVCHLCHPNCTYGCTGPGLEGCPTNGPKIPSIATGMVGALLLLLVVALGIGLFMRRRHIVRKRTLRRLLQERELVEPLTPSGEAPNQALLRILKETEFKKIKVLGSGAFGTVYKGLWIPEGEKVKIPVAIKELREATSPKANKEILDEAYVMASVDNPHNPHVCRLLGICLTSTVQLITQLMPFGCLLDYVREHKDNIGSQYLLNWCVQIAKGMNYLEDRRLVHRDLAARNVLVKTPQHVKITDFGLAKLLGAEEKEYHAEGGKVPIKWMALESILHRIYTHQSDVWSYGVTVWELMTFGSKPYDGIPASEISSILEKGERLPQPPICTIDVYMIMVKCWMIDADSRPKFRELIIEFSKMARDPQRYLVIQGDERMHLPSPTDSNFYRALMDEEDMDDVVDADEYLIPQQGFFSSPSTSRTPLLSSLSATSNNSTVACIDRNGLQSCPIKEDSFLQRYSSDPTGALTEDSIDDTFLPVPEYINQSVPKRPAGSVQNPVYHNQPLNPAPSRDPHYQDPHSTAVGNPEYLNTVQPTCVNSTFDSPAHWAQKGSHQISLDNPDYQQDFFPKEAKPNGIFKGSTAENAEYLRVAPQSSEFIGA
T3 sequence (P00533 with tags, fused parts or gaps DUP768-770): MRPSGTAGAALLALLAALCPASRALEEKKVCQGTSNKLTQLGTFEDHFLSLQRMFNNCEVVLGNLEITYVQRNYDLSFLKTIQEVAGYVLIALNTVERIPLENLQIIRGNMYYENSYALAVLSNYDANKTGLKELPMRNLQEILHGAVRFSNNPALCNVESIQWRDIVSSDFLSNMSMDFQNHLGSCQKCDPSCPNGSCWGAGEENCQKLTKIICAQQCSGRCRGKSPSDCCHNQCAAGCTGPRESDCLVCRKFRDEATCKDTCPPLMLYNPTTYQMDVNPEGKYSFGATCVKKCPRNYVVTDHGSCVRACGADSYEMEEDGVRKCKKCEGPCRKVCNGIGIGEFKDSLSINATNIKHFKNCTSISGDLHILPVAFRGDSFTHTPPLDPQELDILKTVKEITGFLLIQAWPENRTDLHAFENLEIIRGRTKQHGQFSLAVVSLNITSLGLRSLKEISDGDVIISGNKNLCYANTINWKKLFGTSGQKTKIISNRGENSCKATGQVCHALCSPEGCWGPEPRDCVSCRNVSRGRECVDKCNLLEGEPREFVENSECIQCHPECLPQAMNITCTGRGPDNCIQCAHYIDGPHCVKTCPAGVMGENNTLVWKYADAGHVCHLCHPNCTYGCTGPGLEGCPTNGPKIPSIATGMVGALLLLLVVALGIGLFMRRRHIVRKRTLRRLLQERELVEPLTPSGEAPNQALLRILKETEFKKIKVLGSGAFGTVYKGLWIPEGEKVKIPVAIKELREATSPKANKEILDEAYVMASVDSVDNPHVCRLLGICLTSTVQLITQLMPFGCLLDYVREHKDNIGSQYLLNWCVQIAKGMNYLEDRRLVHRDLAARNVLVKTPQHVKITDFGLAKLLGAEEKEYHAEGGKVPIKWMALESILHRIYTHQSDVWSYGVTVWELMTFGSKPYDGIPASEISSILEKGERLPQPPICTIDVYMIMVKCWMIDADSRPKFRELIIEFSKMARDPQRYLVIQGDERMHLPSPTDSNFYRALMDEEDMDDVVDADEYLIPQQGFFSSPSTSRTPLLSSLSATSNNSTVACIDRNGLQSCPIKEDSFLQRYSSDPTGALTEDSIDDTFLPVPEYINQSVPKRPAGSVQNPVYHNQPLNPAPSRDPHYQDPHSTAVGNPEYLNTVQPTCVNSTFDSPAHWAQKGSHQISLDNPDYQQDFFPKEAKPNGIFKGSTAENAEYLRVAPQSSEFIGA
T1 sequence (P00533 with tags, fused parts or gaps INS763FQEA): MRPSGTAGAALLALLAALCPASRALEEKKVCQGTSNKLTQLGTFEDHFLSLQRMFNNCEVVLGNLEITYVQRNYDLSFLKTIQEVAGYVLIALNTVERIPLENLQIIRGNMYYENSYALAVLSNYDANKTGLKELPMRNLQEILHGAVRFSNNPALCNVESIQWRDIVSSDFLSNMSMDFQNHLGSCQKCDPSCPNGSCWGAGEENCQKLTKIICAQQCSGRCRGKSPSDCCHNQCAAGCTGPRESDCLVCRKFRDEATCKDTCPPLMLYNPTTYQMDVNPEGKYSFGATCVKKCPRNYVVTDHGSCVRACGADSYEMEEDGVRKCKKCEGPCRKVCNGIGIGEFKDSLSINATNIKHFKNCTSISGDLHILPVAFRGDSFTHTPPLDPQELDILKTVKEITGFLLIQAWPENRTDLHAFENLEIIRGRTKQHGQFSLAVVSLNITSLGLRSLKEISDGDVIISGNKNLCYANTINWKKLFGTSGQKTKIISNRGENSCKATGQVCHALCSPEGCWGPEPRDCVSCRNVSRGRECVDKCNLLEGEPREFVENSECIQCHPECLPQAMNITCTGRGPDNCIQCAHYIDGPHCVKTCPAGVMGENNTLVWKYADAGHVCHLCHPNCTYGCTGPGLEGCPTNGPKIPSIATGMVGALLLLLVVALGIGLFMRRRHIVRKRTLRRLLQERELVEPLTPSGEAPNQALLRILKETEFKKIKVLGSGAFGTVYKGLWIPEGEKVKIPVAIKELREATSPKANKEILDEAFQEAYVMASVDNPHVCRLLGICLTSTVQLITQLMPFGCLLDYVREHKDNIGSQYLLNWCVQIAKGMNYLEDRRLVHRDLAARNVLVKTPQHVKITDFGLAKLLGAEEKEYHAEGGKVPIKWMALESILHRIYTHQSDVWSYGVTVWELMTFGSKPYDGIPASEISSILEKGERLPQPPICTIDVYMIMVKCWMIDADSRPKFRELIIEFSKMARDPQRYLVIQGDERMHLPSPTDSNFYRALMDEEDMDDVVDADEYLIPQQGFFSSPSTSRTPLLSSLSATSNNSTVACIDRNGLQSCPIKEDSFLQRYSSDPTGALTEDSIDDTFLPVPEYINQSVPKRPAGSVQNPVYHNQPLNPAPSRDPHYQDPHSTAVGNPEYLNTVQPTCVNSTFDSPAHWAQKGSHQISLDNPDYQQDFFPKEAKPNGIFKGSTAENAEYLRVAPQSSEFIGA
T5 sequence (P00533 whole entry T790M/L858R): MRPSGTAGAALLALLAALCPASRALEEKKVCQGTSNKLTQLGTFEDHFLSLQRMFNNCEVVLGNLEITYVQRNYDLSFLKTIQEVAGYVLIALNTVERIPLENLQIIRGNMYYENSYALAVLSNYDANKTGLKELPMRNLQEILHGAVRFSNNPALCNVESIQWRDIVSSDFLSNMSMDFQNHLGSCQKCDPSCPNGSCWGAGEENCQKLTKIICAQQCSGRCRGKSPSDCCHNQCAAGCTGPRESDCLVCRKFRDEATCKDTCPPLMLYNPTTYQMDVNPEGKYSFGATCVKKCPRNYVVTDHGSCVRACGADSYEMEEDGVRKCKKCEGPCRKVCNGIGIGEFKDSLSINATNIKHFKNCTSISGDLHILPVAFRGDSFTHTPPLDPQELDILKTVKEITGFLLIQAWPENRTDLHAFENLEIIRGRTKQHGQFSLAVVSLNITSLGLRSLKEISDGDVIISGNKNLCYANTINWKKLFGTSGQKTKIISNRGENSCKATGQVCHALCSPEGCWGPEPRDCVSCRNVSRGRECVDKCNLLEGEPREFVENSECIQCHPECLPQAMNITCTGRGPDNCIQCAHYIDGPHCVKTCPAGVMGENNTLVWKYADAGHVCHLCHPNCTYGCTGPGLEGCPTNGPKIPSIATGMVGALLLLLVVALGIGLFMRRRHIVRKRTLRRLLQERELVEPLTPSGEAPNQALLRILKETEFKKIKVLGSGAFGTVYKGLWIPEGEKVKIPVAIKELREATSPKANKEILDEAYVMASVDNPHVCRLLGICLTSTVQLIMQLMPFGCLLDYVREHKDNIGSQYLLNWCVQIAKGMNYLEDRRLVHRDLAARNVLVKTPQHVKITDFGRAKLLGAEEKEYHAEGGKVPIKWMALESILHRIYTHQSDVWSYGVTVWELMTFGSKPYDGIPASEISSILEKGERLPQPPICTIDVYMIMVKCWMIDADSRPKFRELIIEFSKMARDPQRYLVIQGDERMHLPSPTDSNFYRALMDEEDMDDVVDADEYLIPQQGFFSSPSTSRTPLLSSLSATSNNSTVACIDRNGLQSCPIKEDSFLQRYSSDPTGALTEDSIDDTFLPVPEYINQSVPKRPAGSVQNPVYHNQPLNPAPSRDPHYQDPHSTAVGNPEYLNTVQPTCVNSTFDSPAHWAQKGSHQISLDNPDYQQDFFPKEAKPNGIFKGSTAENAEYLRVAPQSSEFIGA

With `C=CC(=O)NC1CC(Oc2cc3c(Nc4ccc(F)c5c4CCC5O)ncnc3cc2OC)C1` (stereo not drawn) [Compound 69, N-(3-((4-((7-fluoro-1-hydroxy-2,3-dihydro-1H-inden-4-yl)amino)-7-methoxyquinazolin-6-yl)oxy)cyclobutyl)acrylamide], the concentration giving a half-maximal response (EC50) in experiment [1], in experiment [2], in experiment [3], in experiment [4], in experiment [5] and in experiment [6] was more than 1000 nM in each case.
For the compound `C=CC(=O)NC1CC(Oc2cc3c(Nc4ccc5c(c4)CCCC5=O)ncnc3cc2OC)C1` (stereo not drawn) [Compound 70, N-(3-((7-methoxy-4-((5-oxo-5,6,7,8-tetrahydronaphthalen-2-yl)amino)quinazolin-6-yl)oxy)cyclobutyl)acrylamide], the concentration giving a half-maximal response (EC50) in experiment [1], in experiment [2], in experiment [3], in experiment [4], in experiment [5] and in experiment [6] was more than 1000 nM each time.
Consider `C=CC(=O)NC1CC(Oc2cc3c(Nc4ccc5c(c4)CCCC5O)ncnc3cc2OC)C1` (stereo not drawn) [Compound 71, N-(3-((4-((5-hydroxy-5,6,7,8-tetrahydronaphthalen-2-yl)amino)-7-methoxyquinazolin-6-yl)oxy)cyclobutyl)acrylamide], for which the EC50 in experiment [1], in experiment [2], in experiment [3], in experiment [4], in experiment [5] and in experiment [6] was more than 1000 nM throughout.
As to `C=CC(=O)N(C)C1CC(Oc2cc3c(Nc4ccc(Cl)c(Cl)c4F)ncnc3cc2OC)C1` (stereo not drawn) [Compound 72, N-(3-((4-((3,4-dichloro-2-fluorophenyl)amino)-7-methoxyquinazolin-6-yl)oxy)cyclobutyl)-N-methylacrylamide], the EC50 in experiment [1] was not above 200 nM; in experiment [2], not above 200 nM; in experiment [3], not above 200 nM; in experiment [4] it was 200 to 1000 nM; in experiment [5], 200 to 1000 nM; in experiment [6], not above 200 nM.
`C=CC(=O)NC1CC(Oc2cc3c(Nc4ccc(Cl)c(Cl)c4)ncnc3cc2OC)C1` (stereo not drawn) [Compound 73, N-(3-((4-((3,4-dichlorophenyl)amino)-7-methoxyquinazolin-6-yl)oxy)cyclobutyl)acrylamide]: the concentration giving a half-maximal response (EC50) in experiment [1] was not above 200 nM; in experiment [2] it was 200 to 1000 nM; in experiment [3], 200 to 1000 nM; in experiment [4] it was 200 to 1000 nM; in experiment [5] it was more than 1000 nM; in experiment [6], not above 200 nM.
For the compound `C=CC(=O)NC1CC(Oc2cc3c(Nc4cccc(Cl)c4F)ncnc3cc2OC)C1` (stereo not drawn) [Compound 74, N-(3-((4-((3-chloro-2-fluorophenyl)amino)-7-methoxyquinazolin-6-yl)oxy)cyclobutyl)acrylamide], the EC50 in experiment [1] is not above 200 nM; in experiment [2], not above 200 nM; in experiment [3], 200 to 1000 nM; in experiment [4] it was not above 200 nM; in experiment [5], 200 to 1000 nM; in experiment [6], not above 200 nM.
Regarding `C=CC(=O)NC1CC(Oc2cc3c(Nc4ccc(Cl)c(F)c4Cl)ncnc3cc2OC)C1` (stereo not drawn) [Compound 75, N-(3-((4-((2,4-dichloro-3-fluorophenyl)amino)-7-methoxyquinazolin-6-yl)oxy)cyclobutyl)acrylamide], the EC50 was not above 200 nM in experiment [1]; 200 to 1000 nM in experiment [2]; more than 1000 nM in experiment [3]; 200 to 1000 nM in experiment [4]; 200 to 1000 nM in experiment [5]; 200 to 1000 nM in experiment [6].
Regarding `C=CC(=O)NC1CC(Oc2cc3c(Nc4ccc(F)c(Cl)c4Cl)ncnc3cc2OC)C1` (stereo not drawn) [Compound 76, N-(3-((4-((2,3-dichloro-4-fluorophenyl)amino)-7-methoxyquinazolin-6-yl)oxy)cyclobutyl)acrylamide], the EC50 is not above 200 nM in experiment [1]; 200 to 1000 nM in experiment [2]; 200 to 1000 nM in experiment [3]; 200 to 1000 nM in experiment [4]; more than 1000 nM in experiment [5]; not above 200 nM in experiment [6].
As for `C=CC(=O)N[C@H]1C[C@H](Oc2cc3c(Nc4ccccc4F)ncnc3cc2OC)C1` [Compound 77, N-(3-((4-((2-fluorophenyl)amino)-7-methoxyquinazolin-6-yl)oxy)cyclobutyl)acrylamide], the 50% effective concentration (EC50) is not above 200 nM in experiment [1]; 200 to 1000 nM in experiment [2]; more than 1000 nM in experiment [3]; 200 to 1000 nM in experiment [4]; more than 1000 nM in experiment [5]; 200 to 1000 nM in experiment [6].
As for `C=CC(=O)NC1CC(Oc2cc3c(Nc4ccc(Cl)cc4F)ncnc3cc2OC)C1` (stereo not drawn) [Compound 78, N-(3-((4-((4-chloro-2-fluorophenyl)amino)-7-methoxyquinazolin-6-yl)oxy)cyclobutyl)acrylamide], the EC50 in experiment [1] is not above 200 nM; in experiment [2], 200 to 1000 nM; in experiment [3], more than 1000 nM; in experiment [4], 200 to 1000 nM; in experiment [5], more than 1000 nM; in experiment [6], not above 200 nM.
Regarding `C=CC(=O)N[C@H]1C[C@H](Oc2cc3c(Nc4ccc(Cl)c(Cl)c4F)ncnc3cc2OC)C1` [Compound 79, N-((1r,3r)-3-((4-((3,4-dichloro-2-fluorophenyl)amino)-7-methoxyquinazolin-6-yl)oxy)cyclobutyl)acrylamide], the EC50 was not above 200 nM in experiment [1]; 200 to 1000 nM in experiment [2]; more than 1000 nM in experiment [3]; 200 to 1000 nM in experiment [4]; more than 1000 nM in experiment [5]; not above 200 nM in experiment [6].
Consider `C=CC(=O)NC1CC(Oc2cc3c(Nc4ccc5ccccc5c4)ncnc3cc2OC)C1` (stereo not drawn) [Compound 80, N-(3-((7-methoxy-4-(naphthalen-2-ylamino)quinazolin-6-yl)oxy)cyclobutyl)acrylamide], for which the EC50 in experiment [1] is not above 200 nM; in experiment [2], more than 1000 nM; in experiment [3], more than 1000 nM; in experiment [4] it was more than 1000 nM; in experiment [5] it was more than 1000 nM; in experiment [6] it was more than 1000 nM.
As for `C=CC(=O)NC1CC(Oc2cc3c(Nc4cccc5ccccc45)ncnc3cc2OC)C1` (stereo not drawn) [Compound 81, N-(3-((7-methoxy-4-(naphthalen-1-ylamino)quinazolin-6-yl)oxy)cyclobutyl)acrylamide], the 50% effective concentration (EC50) in experiment [1] was not above 200 nM; in experiment [2] it was 200 to 1000 nM; in experiment [3] it was not above 200 nM; in experiment [4], 200 to 1000 nM; in experiment [5], 200 to 1000 nM; in experiment [6], not above 200 nM.
Take `C=CC(=O)N[C@H]1C[C@@H](Oc2cc3c(Nc4ccc(Cl)c(Cl)c4)ncnc3cc2OC)C1` [Compound 82, N-((1s,3s)-3-((4-((3,4-dichlorophenyl)amino)-7-methoxyquinazolin-6-yl)oxy)cyclobutyl)acrylamide]: the EC50 in experiment [1] was not above 200 nM; in experiment [2] it was 200 to 1000 nM; in experiment [3] it was 200 to 1000 nM; in experiment [4], 200 to 1000 nM; in experiment [5], 200 to 1000 nM; in experiment [6] it was not above 200 nM.
In the case of `C=CC(=O)N[C@H]1C[C@@H](Oc2cc3c(Nc4cccc5ccccc45)ncnc3cc2OC)C1` [Compound 83, N-((1s,3s)-3-((7-methoxy-4-(naphthalen-1-ylamino)quinazolin-6-yl)oxy)cyclobutyl)acrylamide], the concentration for a half-maximal effect (EC50) was not above 200 nM in experiment [1]; not above 200 nM in experiment [2]; 200 to 1000 nM in experiment [3]; 200 to 1000 nM in experiment [4]; 200 to 1000 nM in experiment [5]; not above 200 nM in experiment [6].
As to `C=CC(=O)NC1CC(Oc2cc3c(NCc4ccc(F)cc4)ncnc3cc2OC)C1` (stereo not drawn) [Compound 84, N-(3-((4-((4-fluorobenzyl)amino)-7-methoxyquinazolin-6-yl)oxy)cyclobutyl)acrylamide], the 50% effective concentration (EC50) in experiment [1] was not above 200 nM; in experiment [2], more than 1000 nM; in experiment [3] it was more than 1000 nM; in experiment [4] it was more than 1000 nM; in experiment [5] it was more than 1000 nM; in experiment [6], 200 to 1000 nM.
With `C=CC(=O)NC1CC(Oc2cc3c(Nc4ccc(F)c(Cl)c4)ncnc3cc2OC)C1` (stereo not drawn) [Compound 85, N-(3-((4-((3-chloro-4-fluorophenyl)amino)-7-methoxyquinazolin-6-yl)oxy)cyclobutyl)acrylamide], the EC50 in experiment [1] is not above 200 nM; in experiment [2] it was more than 1000 nM; in experiment [3], more than 1000 nM; in experiment [4], more than 1000 nM; in experiment [5], more than 1000 nM; in experiment [6], 200 to 1000 nM.
